Assay results from US20200369728A1, “PEPTIDOMIMETIC MACROCYCLES AND USES THEREOF” (Aileron Therapeutics, Inc., priority 2015, published 2020).
Bridge positions count the residues as written; N and C are the ends. Square brackets hold non-standard residues; d marks the D form. Peptide text beside a SMILES is read from it. R8 = C=CCCCCCC[C@@](C)(N)C(=O)O; Cha = N[C@@H](CC1CCCCC1)C(=O)O; hLeu = CC(C)CC[C@H](N)C(=O)O; S5 = C=CCCC[C@](C)(N)C(=O)O

Tested on: SJSA-1 cells
Test: Cell lysis by peptidomimetic macrocycles (LDH release)
Format: cell-based
Details: SJSA-1, 1 h
Method: SJSA-1 cells were plated out one day in advance in clear flat-bottom plates (Costar, catalog number 353072) at 7500 cells/well with 100 ul/well of growth media, leaving row H columns 10-12 empty for media alone. On the day of the assay, media was exchanged with RPMI 1% FBS media, 90 uL of media per well.
10 mM stock solutions of the peptidomimetic macrocycles were prepared in 100% DMSO. Peptidomimetic macrocycles were then diluted serially in 100% DMSO, and then further diluted 20-fold in sterile water to prepare working stock solutions in 5% DMSO/water of each peptidomimetic macrocycle at concentrations ranging from 500 μM to 62.5 μM.
10 μL of each compound was added to the 90 uL of SJSA-1 cells to yield final concentrations of 50 μM to 6.25 μM in 0.5% DMSO-containing media. The negative control (non-lytic) sample was 0.5% DMSO alone and positive control (lytic) samples include 10 μM Melittin and 1% Triton X-100.
Cell plates were incubated for 1 hour at 37° C. After the 1 hour incubation, the morphology of the cells is examined by microscope and then the plates were centrifuged at 1200 rpm for 5 minutes at room temperature. 40 μL of supernatant for each peptidomimetic macrocycle and control sample is transferred to clear assay plates. LDH release is measured using the LDH cytotoxicity assay kit from Caymen, catalog #1000882.

| Compound | 6.25 μM % Lysed cells (1 h LDH) | 25 μM % Lysed cells (1 h LDH) | 50 μM % Lysed cells (1 h LDH) |
| --- | --- | --- | --- |
| CCCC[C@H](NC(=O)[C@H](C)NC(=O)[C@H](C)NC(=O)[C@]1(C)CCCC=CCCCCCC[C@@](C)(NC(=O)[C@H](Cc2ccccc2)NC(=O)[C@@H](NC(=O)[C@H](CC(C)C)NC(C)=O)[C@@H](C)O)C(=O)N[C@@H](C)C(=O)N[C@@H](Cc2ccc(O)cc2)C(=O)N[C@@H](Cc2c[nH]c3ccccc23)C(=O)N[C@@H](Cc2cc(=O)oc3cc(OC)c(OC)cc23)C(=O)N[C@@H](CCC(N)=O)C(=O)N[C@@H](CC(C)C)C(=O)N1)C(=O)N[C@@H](C)C(N)=O [compound 415] | 4% | 2% | 2% |
| CC[C@H](C)[C@H](NC(=O)[C@H](C)NC(=O)[C@H](C)NC(=O)[C@]1(C)CCCC=CCCCCCC[C@@](C)(NC(=O)[C@H](Cc2ccccc2)NC(=O)[C@@H](NC(=O)[C@H](CC(C)C)NC(C)=O)[C@@H](C)O)C(=O)N[C@@H](C)C(=O)N[C@@H](Cc2ccc(C(=O)O)cc2)C(=O)N[C@@H](Cc2c[nH]c3ccccc23)C(=O)N[C@@H](C)C(=O)N[C@@H](CCC(N)=O)C(=O)N[C@@H](CC(C)C)C(=O)N1)C(=O)N[C@H](C)C(N)=O (single isomer, unassigned) [compound 182] | 0% | 3% | 6% |
| CC(=O)N[C@@H](Cc1ccccc1)C(=O)N[C@]1(C)CCCCCCC=CCCC[C@@](C)(C(=O)N[C@@H](Cc2c[nH]cn2)C(=O)N[C@@H](CCCNC(=N)N)C(=O)N[C@@H](Cc2ccccc2)C(=O)N[C@@H](CC2CCCCC2)C(N)=O)NC(=O)[C@H](CC(C)C)NC(=O)[C@H](CCC(N)=O)NC(=O)[C@H](Cc2c[nH]cn2)NC(=O)[C@H](Cc2c[nH]c3ccccc23)NC(=O)[C@H](Cc2c[nH]cn2)NC(=O)[C@H](Cc2c[nH]cn2)NC1=O [compound 55] (Ac-F[R8]HHWHQL[S5]HRF[Cha]-NH2; staple 2-9) | 1% | 9% | 13% |
| CC[C@H](C)[C@H](NC(=O)[C@H](C)NC(=O)[C@H](C)NC(=O)[C@]1(C)CCCC=CCCCCCC[C@@](C)(NC(=O)[C@H](Cc2ccccc2)NC(=O)[C@@H](NC(=O)[C@H](CC(C)C)NC(C)=O)[C@@H](C)O)C(=O)N[C@@H](C)C(=O)N[C@@H](Cc2ccc(O)cc2)C(=O)N[C@@H](Cc2c[nH]c3ccccc23)C(=O)N[C@@H](C)C(=O)N[C@@H](CCC(N)=O)C(=O)N[C@@H](CC(C)C)C(=O)N1)C(=O)N[C@H](CC(C)C)C(N)=O (single isomer, unassigned) [compound 82] | 0% | 0% | 1% |
| CC(=O)N[C@@H](CC(C)C)C(=O)N[C@H](C(=O)N[C@@H](Cc1ccccc1)C(=O)N[C@]1(C)CCCCCCC=CCCC[C@@](C)(C(=O)N[C@@H](C)C(=O)N[C@@H](C)C(=O)NC(C)(C)C(=O)N[C@@H](C)C(N)=O)NC(=O)[C@H](CC(C)C)NC(=O)[C@H](CCC(N)=O)NC(=O)[C@H](C)NC(=O)[C@H](Cc2c[nH]c3ccccc23)NC(=O)[C@H](Cc2ccc(O)cc2)NC(=O)[C@H](C)NC1=O)[C@@H](C)O (single isomer, unassigned) [compound 232] | 6% | 5% | 5% |
| CC(=O)N[C@@H](CC(C)C)C(=O)N[C@H](C(=O)N[C@@H](Cc1ccccc1)C(=O)N[C@]1(C)CCCCCCC=CCCC[C@@](C)(C(=O)N[C@@H](CO)C(=O)N[C@@H](C)C(=O)N[C@@H](C)C(N)=O)NC(=O)[C@H](CC(C)C)NC(=O)[C@H](CCC(N)=O)NC(=O)[C@H](C)NC(=O)[C@H](Cc2c[nH]c3ccccc23)NC(=O)[C@H](Cc2ccc(C(=O)O)cc2)NC(=O)[C@H](C)NC1=O)[C@@H](C)O (single isomer, unassigned) [compound 169] | 2% | 3% | 7% |
| CC(=O)N[C@@H](Cc1c[nH]cn1)C(=O)N[C@@H](CC(C)C)C(=O)N[C@H](C(=O)N[C@@H](Cc1ccccc1)C(=O)N[C@]1(C)CCCCCCC=CCCC[C@@](C)(C(=O)N[C@@H](C)C(=O)N[C@@H](C)C(=O)N[C@@H](CCC(C)C)C(=O)N[C@@H](C)C(N)=O)NC(=O)[C@H](CC(C)C)NC(=O)[C@H](CCC(N)=O)NC(=O)[C@H](Cc2c[nH]cn2)NC(=O)[C@H](Cc2c[nH]c3ccccc23)NC(=O)[C@H](Cc2c[nH]cn2)NC(=O)[C@H](Cc2c[nH]cn2)NC1=O)[C@@H](C)O [compound 32] (Ac-HLTF[R8]HHWHQL[S5]AA[hLeu]A-NH2; staple 5-12) | 0% | 2% | 0% |
| CC(=O)N[C@@H](CC(C)C)C(=O)N[C@H](C(=O)N[C@@H](Cc1ccccc1)C(=O)N[C@]1(C)CCCCCCC=CCCC[C@@](C)(C(=O)N[C@@H](CO)C(=O)N[C@@H](C)C(=O)N[C@@H](CCC(C)C)C(N)=O)NC(=O)[C@H](CC(C)C)NC(=O)[C@H](CCC(N)=O)NC(=O)[C@H](C)NC(=O)[C@H](Cc2c[nH]c3ccccc23)NC(=O)[C@H](Cc2ccc(O)cc2)NC(=O)[C@H](C)NC1=O)[C@@H](C)O [compound 6] (Ac-LTF[R8]AYWAQL[S5]SA[hLeu]-NH2; staple 4-11) | 1% | 1% | 1% |
| CC(=O)N[C@@H](CC(C)C)C(=O)N[C@H](C(=O)N[C@@H](Cc1ccccc1)C(=O)N[C@]1(C)CCCCCCC=CCCC[C@@](C)(C(=O)N[C@@H](C)C(=O)N[C@H](C(=O)NCC(N)=O)C(C)C)NC(=O)[C@H](CC(C)C)NC(=O)[C@H](CCC(N)=O)NC(=O)[C@H](C)NC(=O)[C@H](Cc2c[nH]c3ccccc23)NC(=O)[C@H](Cc2ccc(O)cc2)NC(=O)[C@H](C)NC1=O)[C@@H](C)O (single isomer, unassigned) [compound 108] | 0% | 0% | 1% |
| CC[C@H](C)[C@H](NC(=O)[C@H](C)NC(=O)[C@H](C)NC(=O)[C@]1(C)CCCC=CCCCCCC[C@@](C)(NC(=O)[C@H](Cc2ccccc2)NC(=O)[C@@H](NC(=O)[C@H](CC(C)C)NC(C)=O)[C@@H](C)O)C(=O)N[C@@H](CCC(=O)O)C(=O)N[C@@H](Cc2ccc(C(=O)O)cc2)C(=O)N[C@@H](Cc2c[nH]c3cc(Cl)ccc23)C(=O)N[C@@H](C)C(=O)N[C@@H](CCC(N)=O)C(=O)N[C@@H](CC2CCC2)C(=O)N1)C(=O)N[C@H](C)C(N)=O (single isomer, unassigned) [compound 335] | 0% | 0% | 1% |
| CC(=O)N[C@@H](CCC(=O)O)C(=O)N[C@H](C(=O)N[C@@H](Cc1ccccc1)C(=O)N[C@]1(C)CCCCCCC=CCCC[C@@](C)(C(=O)N[C@@H](C)C(=O)N[C@@H](C)C(=O)N[C@@H](C)C(=O)N[C@@H](C)C(=O)N[C@@H](C)C(=O)N[C@H](C)C(N)=O)NC(=O)[C@H](CC(C)C)NC(=O)[C@H](CCC(N)=O)NC(=O)[C@H](C)NC(=O)[C@H](Cc2c[nH]c3ccccc23)NC(=O)[C@H](Cc2ccc(O)cc2)NC(=O)[C@H](CCC(=O)O)NC1=O)[C@@H](C)O (single isomer, unassigned) [compound 340] | 0% | 0% | 0% |
| CC[C@H](C)[C@H](NC(=O)[C@H](C)NC(=O)[C@H](C)NC(=O)[C@]1(C)CCCC=CCCCCCC[C@@](C)(NC(=O)[C@H](Cc2ccccc2)NC(=O)[C@@H](NC(=O)[C@H](CCC(=O)O)NC(C)=O)[C@@H](C)O)C(=O)N[C@@H](CCC(=O)O)C(=O)N[C@@H](Cc2c[nH]cn2)C(=O)N[C@@H](Cc2c[nH]c3ccccc23)C(=O)N[C@@H](C)C(=O)N[C@@H](CCC(N)=O)C(=O)N[C@@H](CC(C)C)C(=O)N1)C(=O)N[C@H](C)C(N)=O (single isomer, unassigned) [compound 174] | 5% | 2% | 5% |
| CC(=O)N[C@@H](CC(C)C)C(=O)N[C@H](C(=O)N[C@@H](Cc1ccccc1)C(=O)N[C@]1(C)CCCCCCC=CCCC[C@@](C)(C(=O)N[C@@H](C)C(=O)N[C@@H](C)C(=O)N[C@@H](Cc2c[nH]c3ccccc23)C(=O)N[C@H](C)C(N)=O)NC(=O)[C@H](CC(C)C)NC(=O)[C@H](CCC(N)=O)NC(=O)[C@H](C)NC(=O)[C@H](Cc2c[nH]c3ccccc23)NC(=O)[C@H](Cc2ccc(O)cc2)NC(=O)[C@H](C)NC1=O)[C@@H](C)O [compound 211] (Ac-LTF[R8]AYWAQL[S5]AAW[dA]-NH2; staple 4-11) | 5% | 3% | 1% |
